target: T1, HPK1 (Homo sapiens, UniProt Q92918); test: HPK1 degradation in Jurkat cells (Western blot); format: cell-based; details: 12 h (in-cell remark of Table 4), compound 100 nM
T1 construct: endogenous in cells; host or cells: Jurkat cells
Description: (§1) S1: Jurkat cells were resuscitated, and then subjected to adherent culture for 12 h, compounds were added, the compound concentrations were fixed (treatment time was 0 h, 3 h, 6 h, 12 h, 24 h and 72 h) or the treatment time was fixed (compound concentrations were 0 nM, 1 nM, 10 nM, 100 nM and 1000 nM);
(§2) S2: the culture solution was poured out, the cells were washed with 3 mL of PBS pre-cooled at 4° C., then the washing solution was discarded, an appropriate amount of lysis solution containing PMSF (100×) was added according to the cell amount, the mixture was uniformly mixed, then placed on ice for lysis for 30 min, and centrifuged at 12000 rpm and at 4° C. for 5 min, (a centrifuge was started for pre-cooling in advance), and the centrifuged supernatant was transferred into a new centrifuge tube and prepared for quantification;
(§3) S3: an BCA quantitative reagent of Pierce™ BCA Protein Assay Kit (23225) was added at 200 uL/well, then 20 uL of BSA with known different concentrations was added to prepare a protein quantitative standard curve and a sample protein to be detected with avoiding generation of bubbles, the mixture was incubated for 30 min in the dark at 37° C., an OD value was measured at 562 nm, then an appropriate amount of SDS-PAGE loading buffer was added to the protein sample, and the reaction mixture was heated for 5 min in a boiling water bath to fully denature the protein, and stored at −20° C. for later use;
(§4) S4: an SDS-PAGE gel was prepared, wherein the voltage of a concentrated gel was 90 V, and the voltage of a separation gel was 120 V, a membrane was transferred for 1 h at 4° C. and at a voltage of 100 V, after the membrane was transferred, the protein membrane was immediately placed in a prepared 5% BSA solution, and the mixture was slowly shaken on a shaker, and sealed for 1 h at room temperature;
(§5) S5: the primary antibody was diluted according to an appropriate proportion according to the specifications of HPK1 Antibody (4472S CST), GLK (D1L4G) Rabbit mAb (92427S CST), SLP-76 (D1R1A) Rabbit mAb (70896S CST), Phospho-SLP-76 (Ser376) (D7S1K) XP® Rabbit mAb (92711T CST) and β-actin Mouse Monoclonal antibody (BE0021 easybio), then incubated overnight with slow shaking at 4° C., and washed 3 times with PBST for 10 min/time;
(§6) S6: Goat Anti-Rabbit IgG (H&L)-HRP Conjugated (BE0101 easybio) or Goat Anti-Mouse IgG (H&L)-HRP Conjugated (BE0102 easybio) was selected according to the primary antibody, and the secondary antibody was diluted according to an appropriate proportion according to the specification of the secondary antibody, then incubated for 1 h at room temperature with slow shaking, and washed 3 times with PBST for 10 min/time; and
(§7) S7: an ECL luminescence was added, the results were observed by a developing machine, Western results were quantified using Image J software, and the degradation rates (HPK1 and GLK) or inhibition rates (SLP76 Ser376 phosphorylation) were calculated by comparison with a control group to which no compounds were added, (degradation rate/inhibition rate=1−administration group/control group).

T1 sequence (Q92918 whole entry): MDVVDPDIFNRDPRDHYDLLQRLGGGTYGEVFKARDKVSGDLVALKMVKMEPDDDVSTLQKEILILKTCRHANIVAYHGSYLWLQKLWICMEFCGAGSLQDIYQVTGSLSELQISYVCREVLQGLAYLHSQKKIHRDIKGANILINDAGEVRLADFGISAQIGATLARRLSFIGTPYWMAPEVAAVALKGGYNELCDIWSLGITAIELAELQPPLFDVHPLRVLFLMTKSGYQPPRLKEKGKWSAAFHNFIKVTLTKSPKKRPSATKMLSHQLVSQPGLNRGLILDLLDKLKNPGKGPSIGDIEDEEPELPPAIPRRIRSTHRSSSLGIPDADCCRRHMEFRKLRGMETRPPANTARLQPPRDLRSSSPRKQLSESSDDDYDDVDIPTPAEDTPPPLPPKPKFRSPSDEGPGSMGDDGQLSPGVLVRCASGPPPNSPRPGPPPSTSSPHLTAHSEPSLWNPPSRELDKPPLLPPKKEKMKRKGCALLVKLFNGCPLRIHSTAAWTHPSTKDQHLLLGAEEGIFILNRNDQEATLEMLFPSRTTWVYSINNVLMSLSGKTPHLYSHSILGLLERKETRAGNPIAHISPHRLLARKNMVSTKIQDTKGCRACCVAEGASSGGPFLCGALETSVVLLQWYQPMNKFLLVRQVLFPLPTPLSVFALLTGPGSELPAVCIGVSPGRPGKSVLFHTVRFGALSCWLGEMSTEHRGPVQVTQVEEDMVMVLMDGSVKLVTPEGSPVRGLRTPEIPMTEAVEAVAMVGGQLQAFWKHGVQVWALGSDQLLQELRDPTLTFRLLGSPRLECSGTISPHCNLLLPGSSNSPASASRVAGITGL

| SMILES | HPK1 degradation rate (12 h) [%] |
| --- | --- |
| CC(C)(O)C#Cc1cccc(COc2cc(-c3cnc(C4CCN(C(=O)Cn5cc(COCCOc6cccc7c6C(=O)N(C6CCC(=O)NC6=O)C7=O)nn5)CC4)s3)cnc2N)c1 (centres unmarked) [Compound C20] | 41 |

same assay, conditions: HPK1, compound 100 nM, 3 h

| SMILES | Degradation rate (3 h) [%] |
| --- | --- |
| CC(C)(O)C#Cc1cccc(COc2cc(-c3cnc(C4CCN(C(=O)CCCCCCCCCOc5cccc6c5C(=O)N(C5CCC(=O)NC5=O)C6=O)CC4)s3)cnc2N)c1 (centres unmarked) [Compound C3] | 54 |

same assay, conditions: HPK1, compound 100 nM, 6 h

| SMILES | Degradation rate (6 h) [%] |
| --- | --- |
| CC(C)(O)C#Cc1cccc(COc2cc(-c3cnc(C4CCN(C(=O)CCCCCCCCCOc5cccc6c5C(=O)N(C5CCC(=O)NC5=O)C6=O)CC4)s3)cnc2N)c1 (centres unmarked) [Compound C3] | 52 |

same assay, conditions: HPK1, compound 100 nM, 12 h (Table 2)

| SMILES | Degradation rate (12 h) [%] |
| --- | --- |
| CC(C)(O)C#Cc1cccc(COc2cc(-c3cnc(C4CCN(C(=O)CCOCCOCCOCCOCCOc5cccc6c5C(=O)N(C5CCC(=O)NC5=O)C6=O)CC4)s3)cnc2N)c1 (centres unmarked) [Compound C7] | 58 |
| CC(C)(O)C#Cc1cccc(COc2cc(-c3cnc(C4CCN(C(=O)CCCCCCCCCOc5cccc6c5C(=O)N(C5CCC(=O)NC5=O)C6=O)CC4)s3)cnc2N)c1 (centres unmarked) [Compound C3] | 58 |

same assay, conditions: HPK1, compound 100 nM, 24 h

| SMILES | Degradation rate (24 h) [%] |
| --- | --- |
| CC(C)(O)C#Cc1cccc(COc2cc(-c3cnc(C4CCN(C(=O)CCOCCOCCOCCOCCOc5cccc6c5C(=O)N(C5CCC(=O)NC5=O)C6=O)CC4)s3)cnc2N)c1 (centres unmarked) [Compound C7] | 86 |
| CC(C)(O)C#Cc1cccc(COc2cc(-c3cnc(C4CCN(C(=O)CCCCCCCCCOc5cccc6c5C(=O)N(C5CCC(=O)NC5=O)C6=O)CC4)s3)cnc2N)c1 (centres unmarked) [Compound C3] | 3 |

same assay, conditions: HPK1, compound 100 nM, 72 h

| SMILES | Degradation rate (72 h) [%] |
| --- | --- |
| CC(C)(O)C#Cc1cccc(COc2cc(-c3cnc(C4CCN(C(=O)CCOCCOCCOCCOCCOc5cccc6c5C(=O)N(C5CCC(=O)NC5=O)C6=O)CC4)s3)cnc2N)c1 (centres unmarked) [Compound C7] | −9 |

same assay, conditions: HPK1, treatment time 12 h, compound 10 nM

| SMILES | Degradation rate (10 nM) [%] |
| --- | --- |
| CC(C)(O)C#Cc1cccc(COc2cc(-c3cnc(C4CCN(C(=O)CCCCCCCOc5cccc6c5C(=O)N(C5CCC(=O)NC5=O)C6=O)CC4)s3)cnc2N)c1 (centres unmarked) [Compound C1] | 47 |
| CC(C)(O)C#Cc1cccc(COc2cc(-c3cnc(C4CCN(C(=O)CCOCCOCCOCCOCCOc5cccc6c5C(=O)N(C5CCC(=O)NC5=O)C6=O)CC4)s3)cnc2N)c1 (centres unmarked) [Compound C7] | 72 |
| CN1C(=O)CCC(N2C(=O)c3cccc(OCCCCCCCC(=O)N4CCC(c5ncc(-c6cnc(N)c(OCc7cccc(C#CC(C)(C)O)c7)c6)s5)CC4)c3C2=O)C1=O (centres unmarked) [Compound C2] | 39 |
| CC(C)(O)C#Cc1cccc(COc2cc(-c3cnc(C4CCN(C(=O)CCCCCCCCCOc5cccc6c5C(=O)N(C5CCC(=O)NC5=O)C6=O)CC4)s3)cnc2N)c1 (centres unmarked) [Compound C3] | 15 |

same assay, conditions: HPK1, treatment time 12 h, compound 100 nM

| SMILES | Degradation rate (100 nM) [%] |
| --- | --- |
| CC(C)(O)C#Cc1cccc(COc2cc(-c3cnc(C4CCN(C(=O)CCCCCCCOc5cccc6c5C(=O)N(C5CCC(=O)NC5=O)C6=O)CC4)s3)cnc2N)c1 (centres unmarked) [Compound C1] | 68 |
| CC(C)(O)C#Cc1cccc(COc2cc(-c3cnc(C4CCN(C(=O)CCOCCOCCOCCOCCOc5cccc6c5C(=O)N(C5CCC(=O)NC5=O)C6=O)CC4)s3)cnc2N)c1 (centres unmarked) [Compound C7] | 68 |
| CN1C(=O)CCC(N2C(=O)c3cccc(OCCCCCCCC(=O)N4CCC(c5ncc(-c6cnc(N)c(OCc7cccc(C#CC(C)(C)O)c7)c6)s5)CC4)c3C2=O)C1=O (centres unmarked) [Compound C2] | 33 |
| CC(C)(O)C#Cc1cccc(COc2cc(-c3cnc(C4CCN(C(=O)CCCCCCCCCOc5cccc6c5C(=O)N(C5CCC(=O)NC5=O)C6=O)CC4)s3)cnc2N)c1 (centres unmarked) [Compound C3] | 75 |

same assay, conditions: Jurkat, 6 h, treatment time 6 h, compound 100 nM

| SMILES | HPK1 degradation rate at 0.1 µM [%] |
| --- | --- |
| CC(C)(O)C#Cc1cccc(COc2cc(-c3cnc(C4CCN(C(=O)CCNC(=O)CCCOc5cccc6c5C(=O)N(C5CCC(=O)NC5=O)C6=O)CC4)s3)cnc2N)c1 (centres unmarked) [Compound C13] | 38 |
| CC(C)(O)C#Cc1cccc(COc2cc(-c3cnc(C4CCN(C(=O)C5CCN(C(=O)CCCCOc6cccc7c6C(=O)N(C6CCC(=O)NC6=O)C7=O)CC5)CC4)s3)cnc2N)c1 (centres unmarked) [Compound C17] | -7 |
| CC(C)(O)C#Cc1cccc(COc2cc(-c3cnc(C4CCN(C(=O)Cn5cc(COCCOc6cccc7c6C(=O)N(C6CCC(=O)NC6=O)C7=O)nn5)CC4)s3)cnc2N)c1 (centres unmarked) [Compound C20] | -15 |

same assay, conditions: compound 100 nM, maximum over different time points, read-out: Maximum degradation rate of HPK1

| SMILES | Dmax at 0.1 µM [%] |
| --- | --- |
| CC(C)(O)C#Cc1cccc(COc2cc(-c3cnc(C4CCN(C(=O)CCCCCCCCCOc5cccc6c5C(=O)N(C5CCC(=O)NC5=O)C6=O)CC4)s3)cnc2N)c1 (centres unmarked) [Compound C3] | 62 |

target: T2, GLK (Homo sapiens, UniProt Q8IVH8); test: GLK degradation in Jurkat cells (Western blot); format: cell-based; details: treatment time 6 h, compound 100 nM
T2 construct: endogenous in cells; host or cells: Jurkat cells
T2 sequence (Q8IVH8 1-894): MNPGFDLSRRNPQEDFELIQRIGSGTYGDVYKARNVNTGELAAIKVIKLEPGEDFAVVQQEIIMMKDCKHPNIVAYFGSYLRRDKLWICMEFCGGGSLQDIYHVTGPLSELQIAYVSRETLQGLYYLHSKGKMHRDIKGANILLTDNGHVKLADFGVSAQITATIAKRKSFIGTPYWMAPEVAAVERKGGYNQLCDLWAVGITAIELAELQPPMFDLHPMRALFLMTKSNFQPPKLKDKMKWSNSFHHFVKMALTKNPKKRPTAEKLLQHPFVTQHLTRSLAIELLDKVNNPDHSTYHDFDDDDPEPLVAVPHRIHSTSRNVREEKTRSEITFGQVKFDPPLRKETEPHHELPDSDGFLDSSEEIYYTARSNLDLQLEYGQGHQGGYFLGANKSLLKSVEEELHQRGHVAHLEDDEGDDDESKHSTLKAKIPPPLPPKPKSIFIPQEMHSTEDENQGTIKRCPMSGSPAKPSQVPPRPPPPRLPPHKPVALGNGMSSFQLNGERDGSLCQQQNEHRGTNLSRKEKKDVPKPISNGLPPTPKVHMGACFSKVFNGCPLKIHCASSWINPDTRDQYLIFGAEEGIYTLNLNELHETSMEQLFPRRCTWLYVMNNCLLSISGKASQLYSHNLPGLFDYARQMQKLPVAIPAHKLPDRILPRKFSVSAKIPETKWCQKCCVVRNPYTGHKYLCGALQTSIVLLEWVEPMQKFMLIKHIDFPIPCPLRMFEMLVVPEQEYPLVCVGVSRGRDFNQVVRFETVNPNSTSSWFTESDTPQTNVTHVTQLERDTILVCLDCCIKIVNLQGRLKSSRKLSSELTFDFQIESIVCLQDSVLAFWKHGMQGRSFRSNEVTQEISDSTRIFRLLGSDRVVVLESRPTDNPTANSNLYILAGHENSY
Description: as §1, §2, §3, §4, §5, §6, §7

| SMILES | GLK degradation rate [%] |
| --- | --- |
| CC(C)(O)C#Cc1cccc(COc2cc(-c3cnc(C4CCN(C(=O)CCNC(=O)CCCOc5cccc6c5C(=O)N(C5CCC(=O)NC5=O)C6=O)CC4)s3)cnc2N)c1 (centres unmarked) [Compound C13] | 43 |
| CC(C)(O)C#Cc1cccc(COc2cc(-c3cnc(C4CCN(C(=O)C5CCN(C(=O)CCCCOc6cccc7c6C(=O)N(C6CCC(=O)NC6=O)C7=O)CC5)CC4)s3)cnc2N)c1 (centres unmarked) [Compound C17] | 42 |
| CC(C)(O)C#Cc1cccc(COc2cc(-c3cnc(C4CCN(C(=O)Cn5cc(COCCOc6cccc7c6C(=O)N(C6CCC(=O)NC6=O)C7=O)nn5)CC4)s3)cnc2N)c1 (centres unmarked) [Compound C20] | 15 |

test system: SLP76 Ser376 phosphorylation; test: Inhibition of SLP76 Ser376 phosphorylation in Jurkat cells (Western blot); format: cell-based; details: Homo sapiens, compound 100 nM, maximum over different time points, read-out: Maximum inhibition rate of SLP76 Ser376 phosphorylation
Description: as §1, §2, §3, §4, §5, §6, §7

| SMILES | inhibition at 0.1 µM [%] |
| --- | --- |
| CC(C)(O)C#Cc1cccc(COc2cc(-c3cnc(C4CCN(C(=O)CCCCCCCCCOc5cccc6c5C(=O)N(C5CCC(=O)NC5=O)C6=O)CC4)s3)cnc2N)c1 (centres unmarked) [Compound C3] | 81 |

same assay, conditions: Homo sapiens, treatment time 6 h, compound 100 nM, read-out: SLP76 phosphorylation inhibition rate

| SMILES | inhibition at 0.1 µM [%] |
| --- | --- |
| CC(C)(O)C#Cc1cccc(COc2cc(-c3cnc(C4CCN(C(=O)CCNC(=O)CCCOc5cccc6c5C(=O)N(C5CCC(=O)NC5=O)C6=O)CC4)s3)cnc2N)c1 (centres unmarked) [Compound C13] | 4 |
| CC(C)(O)C#Cc1cccc(COc2cc(-c3cnc(C4CCN(C(=O)C5CCN(C(=O)CCCCOc6cccc7c6C(=O)N(C6CCC(=O)NC6=O)C7=O)CC5)CC4)s3)cnc2N)c1 (centres unmarked) [Compound C17] | 22 |
| CC(C)(O)C#Cc1cccc(COc2cc(-c3cnc(C4CCN(C(=O)Cn5cc(COCCOc6cccc7c6C(=O)N(C6CCC(=O)NC6=O)C7=O)nn5)CC4)s3)cnc2N)c1 (centres unmarked) [Compound C20] | 7 |

target: T1, HPK1; test: HPK1 degradation in Jurkat cells (Western blot); format: cell-based; details: compound 100 nM

| SMILES | Degradation rate (48 h) [%] |
| --- | --- |
| CC(C)(O)C#Cc1cccc(COc2cc(-c3cnc(C4CCN(C(=O)CCOCCOCCOCCOCCOc5cccc6c5C(=O)N(C5CCC(=O)NC5=O)C6=O)CC4)s3)cnc2N)c1 (centres unmarked) [Compound C7] | −40 |
| CC(C)(O)C#Cc1cccc(COc2cc(-c3cnc(C4CCN(C(=O)CCCCCCCCCOc5cccc6c5C(=O)N(C5CCC(=O)NC5=O)C6=O)CC4)s3)cnc2N)c1 (centres unmarked) [Compound C3] | 11 |

Reference: patent publication US20220331435A1, “PROTAC SMALL MOLECULE COMPOUND AND USE THEREOF” (ZHUHAI YUFAN BIOTECHNOLOGIES CO., LTD, priority 2019, published 2022)
